PubChem BioAssay (NCI)
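In this assay, cells in 96-well plates receive the compound at five concentrations for 48 hours. Endpoints are linearly interpolated between the surrounding concentrations. GI50: concentration for 50% inhibition of growth. TGI marks complete inhibition of growth.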

Tests used:
Assay in all cases: NCI-60 cell line screen, 48 h
HCT-116 colon = system: HCT-116 colon
K-562 leukemia = system: K-562 leukemia
MDA-MB-231 breast = system: MDA-MB-231 breast
MDA-MB-435 = system: MDA-MB-435
NCI/ADR-RES ovarian = system: NCI/ADR-RES ovarian
OVCAR-8 ovarian = system: OVCAR-8 ovarian
SK-OV-3 ovarian = system: SK-OV-3 ovarian
SN12C renal = system: SN12C renal
SNB-75 CNS = system: SNB-75 CNS
UACC-62 melanoma = system: UACC-62 melanoma

## CCCN(CCC)C(=O)C1=Cc2ccc(-c3ccc(C(=O)N4CCCC4)cc3)cc2N=C(N)C1
HCT-116 colon
  GI50: 4.55 µM
  TGI: 19.2 µM
K-562 leukemia
  GI50: 4.45 µM
  TGI: 26.9 µM
MDA-MB-231 breast
  GI50: 13.2 µM
  TGI: 77 µM
MDA-MB-435
  GI50: 2.51 µM
  TGI: 7.58 µM
NCI/ADR-RES ovarian
  GI50: 19.4 µM
  TGI: 62.2 µM
OVCAR-8 ovarian
  GI50: 16.1 µM
  TGI: 68.5 µM
SK-OV-3 ovarian
  GI50: 18.2 µM
  TGI: 87 µM
SN12C renal
  GI50: 18.4 µM
  TGI: 60 µM
SNB-75 CNS
  GI50: 3.8 µM
  TGI: 30.6 µM
UACC-62 melanoma
  GI50: 9.17 µM
  TGI: 26.4 µM

## COc1cccc(C2c3cc4c(cc3OC(C)(O)C2C)OCO4)c1O (stereo not given)
HCT-116 colon
  TGI: 19.7 µM
K-562 leukemia
  TGI: 36.9 µM
MDA-MB-231 breast
  TGI: 19.2 µM
MDA-MB-435
  TGI: > 100 µM
NCI/ADR-RES ovarian
  TGI: 6.4 µM
OVCAR-8 ovarian
  TGI: 40.9 µM
SK-OV-3 ovarian
  TGI: 42.8 µM
SN12C renal
  TGI: 62.3 µM
SNB-75 CNS
  TGI: 30.8 µM
UACC-62 melanoma
  TGI: 31.1 µM

## C=C1C(=O)O[C@@H]2C[C@@]3(C)CCC[C@H](C)C3=C[C@H]12
HCT-116 colon
  TGI: 16.2 µM
K-562 leukemia
  TGI: 31.2 µM
MDA-MB-231 breast
  TGI: 27.3 µM
MDA-MB-435
  TGI: 17.2 µM
NCI/ADR-RES ovarian
  TGI: 27.9 µM
OVCAR-8 ovarian
  TGI: 19.5 µM
SK-OV-3 ovarian
  TGI: 40.4 µM
SN12C renal
  TGI: 12.5 µM
SNB-75 CNS
  TGI: 13.4 µM
UACC-62 melanoma
  TGI: 19.8 µM

## CC1=CC(=NC(=O)CBr)C=C/C1=N\S(=O)(=O)c1ccccc1
HCT-116 colon
  GI50: 2.05 µM
  TGI: 4.97 µM
K-562 leukemia
  GI50: 2.54 µM
  TGI: 6.44 µM
MDA-MB-231 breast
  GI50: 2.48 µM
  TGI: 6.42 µM
MDA-MB-435
  GI50: 3.4 µM
  TGI: 13.7 µM
NCI/ADR-RES ovarian
  GI50: 3.38 µM
  TGI: 14 µM
OVCAR-8 ovarian
  GI50: 3.29 µM
  TGI: 11.1 µM
SK-OV-3 ovarian
  GI50: 14.2 µM
  TGI: 27.7 µM
SN12C renal
  GI50: 1.83 µM
  TGI: 3.59 µM
SNB-75 CNS
  GI50: 13.5 µM
  TGI: 30.4 µM
UACC-62 melanoma
  GI50: 2.58 µM
  TGI: 10.7 µM

## COc1ccc(CCN2C(=O)C=CC2=O)cc1OC
HCT-116 colon
  TGI: 11.2 µM
K-562 leukemia
  TGI: > 100 µM
MDA-MB-231 breast
  TGI: 28.5 µM
MDA-MB-435
  TGI: 34 µM
NCI/ADR-RES ovarian
  TGI: 74.5 µM
OVCAR-8 ovarian
  TGI: 44.1 µM
SK-OV-3 ovarian
  TGI: 33 µM
SN12C renal
  TGI: 32.5 µM
SNB-75 CNS
  TGI: 36.1 µM
UACC-62 melanoma
  TGI: 31 µM

## Cn1cc(-c2nc(-c3c[nH]c4ncccc34)cs2)c2cc(F)ccc21
HCT-116 colon
  GI50: 2.56 µM
  TGI: 7.22 µM
K-562 leukemia
  GI50: 2.19 µM
  TGI: > 22.9 µM
MDA-MB-231 breast
  GI50: 2.32 µM
  TGI: 8.36 µM
MDA-MB-435
  GI50: 1.12 µM
  TGI: 4.88 µM
NCI/ADR-RES ovarian
  GI50: 2.47 µM
  TGI: 7.66 µM
OVCAR-8 ovarian
  GI50: 2.96 µM
  TGI: > 25.3 µM
SK-OV-3 ovarian
  GI50: 3.9 µM
  TGI: 32.3 µM
SN12C renal
  GI50: 3.47 µM
  TGI: 15.3 µM
SNB-75 CNS
  GI50: 2.78 µM
  TGI: 10.1 µM
UACC-62 melanoma
  GI50: 3.65 µM
  TGI: 17.2 µM

## Cn1cncc1[C@@](N)(c1ccc(Cl)cc1)c1ccc2c(c1)c(-c1cccc(Cl)c1)cc(=O)n2C
HCT-116 colon
  GI50: 1.48 µM
  TGI: 7.57 µM
K-562 leukemia
  GI50: 0.669 µM
  TGI: 6.16 µM
MDA-MB-231 breast
  GI50: 2.52 µM
  TGI: 14.9 µM
MDA-MB-435
  GI50: 0.172 µM
  TGI: 1.93 µM
NCI/ADR-RES ovarian
  GI50: 2.54 µM
  TGI: 12 µM
OVCAR-8 ovarian
  GI50: 2.78 µM
  TGI: 14.8 µM
SK-OV-3 ovarian
  GI50: 7.24 µM
  TGI: 21.2 µM
SN12C renal
  GI50: 2.48 µM
  TGI: 14.9 µM
SNB-75 CNS
  GI50: 4.68 µM
  TGI: 18.9 µM
UACC-62 melanoma
  GI50: 0.42 µM
  TGI: 12.5 µM

## Cn1ccnc1C(=O)/C=C/c1ccc(C(=O)Nc2ccc(Cl)cc2)cc1
HCT-116 colon
  GI50: 0.514 µM
  TGI: 1.08 µM
K-562 leukemia
  GI50: 0.646 µM
  TGI: > 33.3 µM
MDA-MB-231 breast
  GI50: 1.2 µM
  TGI: 16.7 µM
MDA-MB-435
  GI50: 1.37 µM
  TGI: > 33.3 µM
NCI/ADR-RES ovarian
  GI50: 1.06 µM
  TGI: > 33.3 µM
OVCAR-8 ovarian
  GI50: 1.01 µM
  TGI: > 33.3 µM
SK-OV-3 ovarian
  GI50: 1.87 µM
  TGI: > 33.3 µM
SN12C renal
  GI50: 1.01 µM
  TGI: 5.07 µM
SNB-75 CNS
  GI50: 0.615 µM
  TGI: > 33.3 µM
UACC-62 melanoma
  GI50: 1.55 µM
  TGI: 7.59 µM

## O=C1CC(c2ccc(N3CCOCC3)cc2)(c2ccsc2)NC(=O)C1Sc1ccccc1Cl (stereo not given)
HCT-116 colon
  GI50: 25.4 µM
  TGI: > 100 µM
K-562 leukemia
  GI50: 4.69 µM
  TGI: > 100 µM
MDA-MB-231 breast
  GI50: 45.9 µM
  TGI: > 100 µM
MDA-MB-435
  GI50: 88.6 µM
  TGI: > 100 µM
NCI/ADR-RES ovarian
  GI50: 46.7 µM
  TGI: > 100 µM
OVCAR-8 ovarian
  GI50: 7.68 µM
  TGI: > 100 µM
SK-OV-3 ovarian
  GI50: > 100 µM
  TGI: > 100 µM
SN12C renal
  GI50: 10.1 µM
  TGI: > 100 µM
SNB-75 CNS
  GI50: 54.9 µM
  TGI: > 100 µM
UACC-62 melanoma
  GI50: 53.1 µM
  TGI: > 100 µM
